According to publication PMC6268314, “Diterpenoids from the Buds of Pinus banksiana Lamb” (Molecules, 2012):

Test system: DLD-1, human colorectal adenocarcinoma cell line
Assay: Cytotoxicity assay (Hoechst DNA assay), DLD-1
Type: cell-based
Details: Homo sapiens, DLD-1; extracts and fractions; concentration inhibiting 50% cell growth; 48 h; mean of three independent assays
Description: (§1) P. banksiana buds were extracted successively with hexanes, CH2Cl2 and MeOH. After solvent evaporation, each extract was investigated for in vitro cytotoxic and antibacterial activities. Cytotoxic activity evaluations were carried out on lung cancer (A549), colorectal cancer (DLD-1) and normal skin fibroblasts (WS1) human cell lines using the Hoechst assay. Antibacterial activity was evaluated against Escherichia coli and Staphylococcus aureus. […] Therefore, following studies were focused on the CH2Cl2 extract that was further separated over column chromatography on silica gel to afford eleven fractions (A–K). All fractions activities were tested against both cancer cell lines and bacterial strains. […] In a next step, fractions F, G, H and K were separated by a combination of chromatographic procedures to afford the three new compounds 1–3 together with 12 known compounds. The structures of the new compounds were determined as follows and the known products were identified by comparison of their spectroscopic data with values found in the literature.
(§2) Lung carcinoma (A549), colorectal adenocarcinoma (DLD-1) and normal skin fibroblast (WS1) human cell lines were obtained from the American Type Culture Collection (ATCC). All cell lines were cultured in minimum essential medium containing Earle’s salts and L-glutamine (Mediatech Cellgro, VA, USA), to which were added 10% fetal bovine serum (Hyclone), vitamins (1X), penicillin (100 I.U./mL) and streptomycin (100 µg/mL), essential amino acids (1X) and sodium pyruvate (1X) (Mediatech Cellgro, VA). Cells were kept at 37 °C in a humidified environment containing 5% CO2. Antibacterial activity was tested on Escherichia coli ATCC 25922 and Staphylococcus aureus ATCC 25923E.
(§3) Exponentially growing cells were plated on 96-well microplates (BD Falcon) at a density of 5 × 10^3 cells per well in 100 μL of culture medium (DMEM with 10% SVF) and were allowed to adhere for 24 h before treatment. Increasing concentrations of each compound in MeOH or DMSO were then added (100 μL per well) and cells were incubated for 48 h. The final concentration of MeOH or DMSO in the culture medium was maintained at 0.25% (v/v) to avoid solvent toxicity. Microplates were then emptied and stored at −80 °C for 24 h. In a next step, 100 μL of SDS (0.01%) were added and the microplates were incubated at room temperature during 3 h before being put back to the cold. After 24 h, cells were prepared for cellular DNA assay with 100 μL of Hoechst dye 33342. Measurements were performed on the same labsystems at 365 and 460 nm wavelengths. Survival percentage was defined as the fluorescene in experimental wells compared to the control wells after subtraction of the blank values. Etoposide was used as positive control. Each experiment was carried out two times in triplicata. IC50 results were expressed as averaged values and the corresponding standard deviations were computed.

SMILES | IC50
COc1cc([C@@H]2c3cc4c(cc3[C@@H](O[C@@H]3O[C@@H]5CO[C@@H](C)O[C@H]5[C@H](O)[C@H]3O)[C@H]3COC(=O)[C@H]23)OCO4)cc(OC)c1O [Etoposide, reference compound] | 1.7 ± 0.3 µg/mL

Same assay, conditions: Homo sapiens, DLD-1; isolated compounds; concentration inhibiting 50% cell growth; 48 h; mean of three independent assays

SMILES | IC50
CC(C)c1ccc2c(c1)C(=O)C[C@H]1[C@](C)(CO)CCC[C@]21C [Compound 12, 7-oxodehydroabietinol] | 47 ± 9 µM
CC(C)(O)c1ccc2c(c1)[C@H](O)CC1[C@](C)(C(=O)O)CCC[C@]21C (stereo partly drawn) [Compound 5, 7α,15-dihydroxydehydroabietic acid] | > 100 µM
CC(C)c1ccc2c(c1)[C@@H](O)CC1[C@](C)(C(=O)O)CCC[C@]21C (stereo partly drawn) [Compound 11, 7β-hydroxydehydroabietic acid] | > 100 µM
COc1cc([C@@H]2c3cc4c(cc3[C@@H](O[C@@H]3O[C@@H]5CO[C@@H](C)O[C@H]5[C@H](O)[C@H]3O)[C@H]3COC(=O)[C@H]23)OCO4)cc(OC)c1O [Etoposide, reference compound] | 2.9 ± 0.5 µM
CC(C)(O)c1ccc2c(c1)C(=O)CC1[C@](C)(CO)CCC[C@]21C (some centres unmarked) [Compound 14, 15,18-dihydroxyabieta-8,11,13-trien-7-one] | > 100 µM
C=C(C)c1ccc2c(c1)[C@H](O)CC1[C@](C)(C(=O)O)CCC[C@]21C (stereo partly drawn) [Compound 1, 7α-hydroxyabieta-8,11,13,15-tetraen-18-oic acid] | > 100 µM
CC(C)(O)c1ccc2c(c1)C(=O)C[C@H]1[C@](C)(O)CCC[C@]21C [Compound 13, 18-nor-4,15-dihydroxyabieta-8,11,13-trien-7-one] | > 100 µM
C[C@@]1(CO)CCC[C@]2(C)c3ccc(O)cc3CCC12 (some centres unmarked) [Compound 3] | > 100 µM

Same assay, conditions: isolated compounds; concentration inhibiting 50% cell growth; 48 h; mean of three independent assays

SMILES | IC50 DLD-1
CC(C)(O)c1ccc2c(c1)C(=O)C[C@H]1[C@](C)(O)CCC[C@]21C [Compound 13, 18-nor-4,15-dihydroxyabieta-8,11,13-trien-7-one] | not to DLD-1

Test system: Escherichia coli ATCC 25922
Assay: Antibacterial microdilution assay (resazurin), E. coli
Type: cell-based
Details: ATCC25922, isolated compounds, 6 h at 37 °C
Description: as §2
(§4) Antibacterial activity was evaluated using the microdilution method described by Banfi et al. with some modifications. Exponentially growing bacteria were plated in 96-well flat bottom microplates (BD Flacon) at a density of 5 × 10^3 gram-negative E. coli (ATCC 25922) or 40 × 10^3 gram-positive S. aureus (ATCC 25923) per well in 100 μL nutrient broth (Difco). The concentration of ethanol in the culture medium was maintained at 0.25% (v/v) to avoid solvent toxicity. Thereafter, 50 μL of 4% resazurin was added to each well and the microplates were incubated for 6 h at 37 °C. Fluorescence was measured after 6 h with an automated 96-well Fluoroskan Ascent Fl™ plate reader (Labsystems) using 530 and 590 nm excitation and emission wavelengths.

IC50 | SMILES
> 100 µM | CC(C)c1ccc2c(c1)C(=O)C[C@H]1[C@](C)(CO)CCC[C@]21C [Compound 12, 7-oxodehydroabietinol]
> 100 µM | CC(C)(O)c1ccc2c(c1)[C@H](O)CC1[C@](C)(C(=O)O)CCC[C@]21C (stereo partly drawn) [Compound 5, 7α,15-dihydroxydehydroabietic acid]
> 100 µM | CC(C)c1ccc2c(c1)[C@@H](O)CC1[C@](C)(C(=O)O)CCC[C@]21C (stereo partly drawn) [Compound 11, 7β-hydroxydehydroabietic acid]
> 100 µM | CC(C)(O)c1ccc2c(c1)C(=O)CC1[C@](C)(CO)CCC[C@]21C (some centres unmarked) [Compound 14, 15,18-dihydroxyabieta-8,11,13-trien-7-one]
> 100 µM | C=C(C)c1ccc2c(c1)[C@H](O)CC1[C@](C)(C(=O)O)CCC[C@]21C (stereo partly drawn) [Compound 1, 7α-hydroxyabieta-8,11,13,15-tetraen-18-oic acid]
> 100 µM | CC(C)(O)c1ccc2c(c1)C(=O)C[C@H]1[C@](C)(O)CCC[C@]21C [Compound 13, 18-nor-4,15-dihydroxyabieta-8,11,13-trien-7-one]
> 100 µM | C[C@@]1(CO)CCC[C@]2(C)c3ccc(O)cc3CCC12 (some centres unmarked) [Compound 3]

Test system: WS1, human normal skin fibroblasts
Assay: Cytotoxicity assay (Hoechst DNA assay), WS1
Type: cell-based
Details: Skin fibroblast, extracts and fractions, concentration inhibiting 50% cell growth, 48 h, mean of three independent assays
Description: as §1, §2
as §3, with “Each experiment was carried out two times in triplicata.” left out

SMILES | IC50
COc1cc([C@@H]2c3cc4c(cc3[C@@H](O[C@@H]3O[C@@H]5CO[C@@H](C)O[C@H]5[C@H](O)[C@H]3O)[C@H]3COC(=O)[C@H]23)OCO4)cc(OC)c1O [Etoposide, reference compound] | 5.9 ± 0.6 µg/mL

Same assay, conditions: Skin fibroblast, isolated compounds, concentration inhibiting 50% cell growth, 48 h, mean of three independent assays

SMILES | IC50
CC(C)c1ccc2c(c1)C(=O)C[C@H]1[C@](C)(CO)CCC[C@]21C [Compound 12, 7-oxodehydroabietinol] | > 100 µM
CC(C)(O)c1ccc2c(c1)[C@H](O)CC1[C@](C)(C(=O)O)CCC[C@]21C (stereo partly drawn) [Compound 5, 7α,15-dihydroxydehydroabietic acid] | > 100 µM
CC(C)c1ccc2c(c1)[C@@H](O)CC1[C@](C)(C(=O)O)CCC[C@]21C (stereo partly drawn) [Compound 11, 7β-hydroxydehydroabietic acid] | > 100 µM
COc1cc([C@@H]2c3cc4c(cc3[C@@H](O[C@@H]3O[C@@H]5CO[C@@H](C)O[C@H]5[C@H](O)[C@H]3O)[C@H]3COC(=O)[C@H]23)OCO4)cc(OC)c1O [Etoposide, reference compound] | 10 ± 2 µM
CC(C)(O)c1ccc2c(c1)C(=O)CC1[C@](C)(CO)CCC[C@]21C (some centres unmarked) [Compound 14, 15,18-dihydroxyabieta-8,11,13-trien-7-one] | > 100 µM
C=C(C)c1ccc2c(c1)[C@H](O)CC1[C@](C)(C(=O)O)CCC[C@]21C (stereo partly drawn) [Compound 1, 7α-hydroxyabieta-8,11,13,15-tetraen-18-oic acid] | > 100 µM
CC(C)(O)c1ccc2c(c1)C(=O)C[C@H]1[C@](C)(O)CCC[C@]21C [Compound 13, 18-nor-4,15-dihydroxyabieta-8,11,13-trien-7-one] | > 100 µM
C[C@@]1(CO)CCC[C@]2(C)c3ccc(O)cc3CCC12 (some centres unmarked) [Compound 3] | > 100 µM

Test system: Staphylococcus aureus ATCC 25923
Assay: Antibacterial microdilution assay (resazurin), S. aureus
Type: cell-based
Details: ATCC25923, isolated compounds, 6 h at 37 °C
Description: as §2, §4

IC50 | SMILES
> 100 µM | CC(C)c1ccc2c(c1)C(=O)C[C@H]1[C@](C)(CO)CCC[C@]21C [Compound 12, 7-oxodehydroabietinol]
> 100 µM | CC(C)(O)c1ccc2c(c1)[C@H](O)CC1[C@](C)(C(=O)O)CCC[C@]21C (stereo partly drawn) [Compound 5, 7α,15-dihydroxydehydroabietic acid]
> 100 µM | CC(C)c1ccc2c(c1)[C@@H](O)CC1[C@](C)(C(=O)O)CCC[C@]21C (stereo partly drawn) [Compound 11, 7β-hydroxydehydroabietic acid]
> 100 µM | CC(C)(O)c1ccc2c(c1)C(=O)CC1[C@](C)(CO)CCC[C@]21C (some centres unmarked) [Compound 14, 15,18-dihydroxyabieta-8,11,13-trien-7-one]
> 100 µM | C=C(C)c1ccc2c(c1)[C@H](O)CC1[C@](C)(C(=O)O)CCC[C@]21C (stereo partly drawn) [Compound 1, 7α-hydroxyabieta-8,11,13,15-tetraen-18-oic acid]
> 100 µM | CC(C)(O)c1ccc2c(c1)C(=O)C[C@H]1[C@](C)(O)CCC[C@]21C [Compound 13, 18-nor-4,15-dihydroxyabieta-8,11,13-trien-7-one]
> 100 µM | C[C@@]1(CO)CCC[C@]2(C)c3ccc(O)cc3CCC12 (some centres unmarked) [Compound 3]

Test system: A549, human lung carcinoma cell line
Assay: Cytotoxicity assay (Hoechst DNA assay), A549
Type: cell-based
Details: Homo sapiens, A549; extracts and fractions; concentration inhibiting 50% cell growth; 48 h; mean of three independent assays
Description: as §1, §2, §3

SMILES | IC50
COc1cc([C@@H]2c3cc4c(cc3[C@@H](O[C@@H]3O[C@@H]5CO[C@@H](C)O[C@H]5[C@H](O)[C@H]3O)[C@H]3COC(=O)[C@H]23)OCO4)cc(OC)c1O [Etoposide, reference compound] | 0.4 ± 0.2 µg/mL

Same assay, conditions: Homo sapiens, A549; isolated compounds; concentration inhibiting 50% cell growth; 48 h; mean of three independent assays

SMILES | IC50
CC(C)c1ccc2c(c1)C(=O)C[C@H]1[C@](C)(CO)CCC[C@]21C [Compound 12, 7-oxodehydroabietinol] | 34 ± 4 µM
CC(C)(O)c1ccc2c(c1)[C@H](O)CC1[C@](C)(C(=O)O)CCC[C@]21C (stereo partly drawn) [Compound 5, 7α,15-dihydroxydehydroabietic acid] | > 100 µM
CC(C)c1ccc2c(c1)[C@@H](O)CC1[C@](C)(C(=O)O)CCC[C@]21C (stereo partly drawn) [Compound 11, 7β-hydroxydehydroabietic acid] | > 100 µM
COc1cc([C@@H]2c3cc4c(cc3[C@@H](O[C@@H]3O[C@@H]5CO[C@@H](C)O[C@H]5[C@H](O)[C@H]3O)[C@H]3COC(=O)[C@H]23)OCO4)cc(OC)c1O [Etoposide, reference compound] | 0.7 ± 0.3 µM
CC(C)(O)c1ccc2c(c1)C(=O)CC1[C@](C)(CO)CCC[C@]21C (some centres unmarked) [Compound 14, 15,18-dihydroxyabieta-8,11,13-trien-7-one] | > 100 µM
C=C(C)c1ccc2c(c1)[C@H](O)CC1[C@](C)(C(=O)O)CCC[C@]21C (stereo partly drawn) [Compound 1, 7α-hydroxyabieta-8,11,13,15-tetraen-18-oic acid] | > 100 µM
CC(C)(O)c1ccc2c(c1)C(=O)C[C@H]1[C@](C)(O)CCC[C@]21C [Compound 13, 18-nor-4,15-dihydroxyabieta-8,11,13-trien-7-one] | 46 ± 3 µM
C[C@@]1(CO)CCC[C@]2(C)c3ccc(O)cc3CCC12 (some centres unmarked) [Compound 3] | > 100 µM

Same assay, conditions: isolated compounds

SMILES | cytotoxicity against lung carcinoma A549 (in words)
CC(C)c1ccc2c(c1)C(=O)C[C@H]1[C@](C)(CO)CCC[C@]21C [Compound 12, 7-oxodehydroabietinol] | moderate cytotoxicity
CC(C)(O)c1ccc2c(c1)C(=O)C[C@H]1[C@](C)(O)CCC[C@]21C [Compound 13, 18-nor-4,15-dihydroxyabieta-8,11,13-trien-7-one] | moderate cytotoxicity
